The test has as its system A549 (human lung cancer cell) xenograft. Put plainly: Tumor regression effect in tumor-bearing mice by iTAP treatment (A549 cell line xenograft mouse). Format: in vivo, BALB/c Slc-nu/nu mice. Conditions: Laserphyrin 5 mg/kg with 664 nm laser light 30 J/cm^2, IT-Cetuximab 3 mg/kg, alone or combined. The protocol: Separately cultured A549 cells were adjusted to 1×10^7 cells/100 μL, and the cells were subcutaneously administered (SC) to the right thigh of 7-week-old male BALB/c Slc-nu/nu mice, and xenograft mice (tumor-bearing mice) were produced. Tumor size was calculated using the following formula.
Tumor volume (mm^3)=major axis (mm)×minor axis (mm)×minor axis (mm)×0.5
When the tumor size of the mice reached an average size of approximately 150 mm^3, the mice were randomly divided into the following groups (n=3). • Condition (1) Control group: No administration • Condition (2) Laserphyrin (5 mg/kg) administration and 664 nm laser light (30 J/cm^2) • irradiation group • Condition (3) IT-Cetuximab (3 mg/kg) administration group • Condition (4) Laserphyrin (5 mg/kg), IT-Cetuximab (3 mg/kg) administration and 664 nm laser light (30 J/cm^2) irradiation group
IT-Cetuximab was administered intraperitoneally to mice, and 2 days later, Laserphyrin was administered through the tail vein. Furthermore, 2 hours after the administration of Laserphyrin, the tumor site was locally irradiated with a 664 nm laser light.
Tumor size was measured every 3 to 5 days after administration.

From patent US20250000998A1, “MEDICAMENT FOR KILLING TUMOR CELLS” (PhotoQ3 Inc., priority 2021, published 2025) come the findings set out here.

With `C=Cc1c(C)c2cc3nc(c(CC(=O)N[C@@H](CC(=O)O)C(=O)O)c4[nH]c(cc5nc(cc1[nH]2)C(C)=C5CC)c(C)c4C(=O)O)[C@@H](CCC(=O)O)[C@@H]3C` [Laserphyrin, Talaporfin Sodium], the “macroscopic observation of the tumor” value is on record as “tumor growth was confirmed macroscopically”.
